Reference: ChEMBL document CHEMBL1201862, “PubChem BioAssay data set” (2004)
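Step 1: Grow cells in 96-well plates. Step 2: Expose to compound for 48 hours at 5 concentrations. Step 3: Interpolate endpoints linearly; if unreached, use highest concentration. Abbreviation: GI50, concentration required for 50% inhibition of growth.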 Calls of active or inactive are those of the source. Rule as the data show it: active = GI50 up to about 1.1 µM and inactive = higher.

How the values were obtained:
Test in all cases: inhibition of tumour cell growth, NCI panel, 48 h
HOP-18 = system: HOP-18
LXFL 529 = system: LXFL 529
DLD-1 = system: DLD-1
DU-145 = system: DU-145
MDA-N = system: MDA-N
MDA-MB-435 = system: MDA-MB-435
MDA-MB-231 = system: MDA-MB-231
RXF 631 = system: RXF 631
BT-549 = system: BT-549

Measured: GI50

CCN(CC)c1cccc2c1/C(=N/O)CCCC2
inactive: HOP-18 > 100 µM | LXFL 529 > 100 µM

C#CC(C)(C)OCCCCOc1cc(O)c2c(=O)c3ccccc3n(C)c2c1
inactive: HOP-18 > 100 µM | LXFL 529 > 100 µM | DLD-1 > 100 µM

O=C1c2ccccc2N(O)C1(c1ccccc1)C1CCCC=C1N1CCOCC1 (centres undefined)
inactive: LXFL 529 68.5 µM | DLD-1 > 100 µM

CN(C)C(=O)NCCN1CCCCCc2ccccc21
inactive: DU-145 > 100 µM | MDA-N > 100 µM | MDA-MB-435 53 µM | MDA-MB-231 57.1 µM

C=CCCN1CCc2c([nH]c3ccccc23)C1C(=O)O (centres undefined)
inactive: LXFL 529 > 100 µM | RXF 631 > 100 µM | DLD-1 > 100 µM

CC(=O)NNc1nc(C)c(C(=O)NNC(=O)C(=O)Nc2ccc([N+](=O)[O-])cc2C#N)s1
inactive: LXFL 529 44.3 µM

CC(=O)OCc1c(C)c2ccccc2n1C(C)=O
inactive: HOP-18 27.7 µM | RXF 631 25.2 µM

ClCc1ccc2ccc3ccc(CCl)nc3c2n1
inactive: HOP-18 2.65 µM | DLD-1 1.5 µM

COC(=O)[C@H](Cc1ccccc1)NC(=O)N(CCNC(=O)OC(C)(C)C)c1ccccc1
inactive: BT-549 > 100 µM | DU-145 > 100 µM | MDA-N > 100 µM | MDA-MB-435 > 100 µM | MDA-MB-231 > 100 µM

COc1cc2c(ccc3c4cc(OC)c(OC)cc4c[n+](C)c23)cc1O [FAGARONINE]
inactive: HOP-18 > 75 µM | DLD-1 67.5 µM

OC[C@H]1C[C@@H]2Cc3ccccc3N2N1
inactive: DU-145 > 100 µM | MDA-N > 100 µM | MDA-MB-435 > 100 µM | MDA-MB-231 > 100 µM

Cn1cc(-c2csc(-c3cn(C)c4ccccc34)n2)c2ccccc21
inactive: BT-549 56.4 µM | DU-145 42.9 µM | MDA-N 24.9 µM | MDA-MB-435 26.4 µM | MDA-MB-231 17.3 µM

O=c1nc(NC(c2ccccc2)(c2ccccc2)c2ccccc2)ccn1CCCl
inactive: HOP-18 25.5 µM | LXFL 529 13.5 µM | RXF 631 27.3 µM | DLD-1 35.3 µM

CN(CCO)Cc1ncccc1O
inactive: BT-549 > 100 µM | DU-145 > 100 µM | MDA-MB-435 > 100 µM | MDA-MB-231 > 100 µM

CCOC(=O)c1cc(Br)c(-c2cc(C)no2)[nH]1
inactive: BT-549 31.2 µM | DU-145 20.5 µM | MDA-N 23.2 µM | MDA-MB-435 14.3 µM | MDA-MB-231 29.2 µM

O=C1C=CC(=O)c2c(Cl)ccc(O)c21
inactive: HOP-18 19.1 µM | DLD-1 13.9 µM

O=C(/C=C/c1ccc(OCc2ccccc2)cc1)NCc1ccc(C(=O)NCc2ccccc2)cc1
inactive: BT-549 > 100 µM | DU-145 > 100 µM | MDA-N > 100 µM | MDA-MB-435 > 100 µM | MDA-MB-231 > 100 µM

CCOC(=O)/C=C/n1c2ccccc2c(=O)c2ccccc21
inactive: LXFL 529 > 100 µM | DLD-1 23.1 µM

CC1CC/C(=C\c2ccc(N(C)C)cc2)C2=C1C(c1ccc(N(C)C)cc1)NC(=S)N2 (centres undefined)
inactive: BT-549 > 100 µM | DU-145 > 100 µM | MDA-N > 100 µM | MDA-MB-435 > 100 µM | MDA-MB-231 > 100 µM

CC1NC(=O)C(C)C(c2ccccc2)N(N=O)C1c1ccccc1 (centres undefined)
inactive: HOP-18 96.8 µM | DLD-1 72.1 µM

COc1cccc(OCC(=N/NC(=O)c2ccncc2)/N=C/c2ccncc2)c1
inactive: BT-549 > 100 µM | DU-145 > 100 µM | MDA-N > 100 µM | MDA-MB-435 > 100 µM | MDA-MB-231 > 100 µM

Cn1c2ccc([N+](=O)[O-])cc2c(=O)n1Cc1ccccc1F
inactive: BT-549 > 100 µM | DU-145 51.2 µM | MDA-N 27.4 µM | MDA-MB-435 74.3 µM | MDA-MB-231 34.2 µM

COc1ccc(CCn2cncn2)cc1
inactive: LXFL 529 > 100 µM | RXF 631 > 100 µM | DLD-1 > 100 µM

CON(C)C(C#N)=C(C#N)C#N
inactive: DU-145 > 10 µM | MDA-N > 10 µM | MDA-MB-435 > 10 µM | MDA-MB-231 > 10 µM

O=C1C(Cl)N(c2ccccc2[N+](=O)[O-])C1c1c[nH]c2ccccc12 (centres undefined)
inactive: LXFL 529 > 100 µM

Cc1cc(C(=O)NCCN(C)C)c2nc3ccccc3cc2c1
inactive: HOP-18 1.74 µM | DLD-1 1.96 µM
